Here are results for 15 substances from patent publication USRE48461E1, “Modulation of androgen receptor expression” (Ionis Pharmaceuticals, Inc., priority 2012, dated 2021).

Oligonucleotides are written 5' to 3', each unit as a sugar letter and its base; * is a phosphorothioate linkage, no mark a phosphodiester; rarer units and linkages stand in square brackets, end groups in braces. Plain capitals give the bases only. e = 2'-O-(2-methoxyethyl) (MOE); k = constrained ethyl (cEt); [5mC] = 5-methylcytosine; d = 2'-deoxy (DNA)

For data set [1], the system named is AR mRNA. Description: Dose-dependent antisense inhibition of human AR in HuVEC cells (electroporation, qRT-PCR RTS3559, IC50). It counts as cell-based. The note with it: HuVEC. Put shortly: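 HuVEC cells dosed with antisense oligonucleotides by electroporation and treated approximately 16 hours. AR mRNA quantified by real-time qPCR with primer probe set RTS3559 and normalised to total RNA by RIBOGREEN; IC50 from dose-response.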
In general terms: In qPCR the cycle at which signal appears reflects the starting amount.

In data set [2] the test system is AR mRNA. Description: Antisense inhibition of human AR in HuVEC cells, single concentration (electroporation, qRT-PCR RTS3559). It is filed as cell-based. Put shortly:
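HuVEC cells electroporated with antisense oligonucleotides at a single concentration. AR mRNA quantified by qRT-PCR using human primer-probe set RTS3559 and normalised to total RNA content by RIBOGREEN.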

Setting [3] is: Table 31, electroporation, approximately 16 hours.
The mark [4] stands for this setting: Table 33, electroporation, approximately 16 hours.
[5] abbreviates: Table 20, 500 nM oligonucleotide, electroporation, approximately 24 hours, relative to untreated control.
[6] abbreviates: Table 30, electroporation, approximately 16 hours.
[7] abbreviates: Table 35, electroporation, approximately 16 hours.
The mark [8] stands for this setting: Table 24, 1,000 nM oligonucleotide, electroporation, approximately 24 hours, relative to untreated control.
Where [9] appears, read: Table 36, electroporation, approximately 16 hours.
[10] abbreviates: Table 32, electroporation, approximately 16 hours.
The mark [11] stands for this setting: Table 34, electroporation, approximately 16 hours.
Where [12] appears, read: Table 29, electroporation, approximately 16 hours.

Consider “583818 (antisense kT*kG*kG*dT*d[5mC]*dG*dA*dA*dG*dT*dG*d[5mC]*d[5mC]*k[5mC]*k[5mC]*k[5mC]) [compound 583818]”, for which, in the data set with AR mRNA [1] (setting [3]), the “percent inhibition of AR, 46.9 nM” value is given as 9%; the “percent inhibition of AR, 187.5 nM” value came out at 46%; the “percent inhibition of AR, 750.0 nM” value turned out to be 71%; the “percent inhibition of AR, 3000.0 nM” value came to 84%. This substance also yielded an IC50 in the data set with AR mRNA [1] (setting [3]) of 310 nM. In addition, the “% inhibition” value in the data set with AR mRNA [2] (Table 19, 500 nM oligonucleotide, electroporation, approximately 24 hours, relative to untreated control) was determined as 42%.
For “583851 (kG*kT*kG*dG*dG*dA*d[5mC]*dG*d[5mC]*dA*d[5mC]*dA*dG*k[5mC]*kG*kG; antisense) [compound 583851]”, in the data set with AR mRNA [1] (setting [4]), the “percent inhibition of AR, 46.9 nM” value stood at 8%; the “percent inhibition of AR, 187.5 nM” value is on record as 24%; the “percent inhibition of AR, 750.0 nM” value is 54%; the “percent inhibition of AR, 3000.0 nM” value is 76%. The IC50 in the data set with AR mRNA [1] (setting [4]) stood at 610 nM. The “% inhibition” value in the data set with AR mRNA [2] (setting [5]) was 33%.
For “583719 (antisense kG*kT*kA*dG*dG*dT*d[5mC]*dT*dT*dG*dG*dA*d[5mC]*kG*kG*k[5mC]) [compound 583719]”, in the data set with AR mRNA [1] (setting [3]), the “percent inhibition of AR, 46.9 nM” value amounted to 22%; the “percent inhibition of AR, 187.5 nM” value was determined as 46%; the “percent inhibition of AR, 750.0 nM” value is given as 65%; the “percent inhibition of AR, 3000.0 nM” value is 72%. This substance showed an IC50 in the data set on AR mRNA [1] (setting [3]) of 320 nM. The “% inhibition” value in the data set on AR mRNA [2] (500 nM ASO, ~24 h, Table 18) is 36%.
In the case of “549334 (k[5mC]*kA*k[5mC]*d[5mC]*dT*dG*d[5mC]*dG*dG*dG*dA*dA*dG*k[5mC]*kT*k[5mC]; antisense) [compound 549334]”, the “percent inhibition of AR” value was determined as 29% in the data set with AR mRNA [1] (55.6 nM, ~16 h, Table 4); 46% with AR mRNA [1] (166.7 nM, ~16 h, Table 4); 63% with AR mRNA [1] (500.0 nM, ~16 h, Table 4); 72% with AR mRNA [1] (1500.0 nM, ~16 h, Table 4). In the data set with AR mRNA [1] (~16 h, Table 4), the 50% inhibitory concentration (IC50) was found to be 253 nM. Also, the “% inhibition” value in the data set with AR mRNA [2] (500 nM ASO, electroporation, ~24 h, Table 1) is reported as 83%.
Take “583745 (antisense k[5mC]*kG*k[5mC]*dT*d[5mC]*dG*d[5mC]*dG*dG*d[5mC]*d[5mC]*dT*d[5mC]*kT*kG*kG) [compound 583745]”: in the data set on AR mRNA [1] (setting [6]), the “percent inhibition of AR, 46.9 nM” value is 19%; the “percent inhibition of AR, 187.5 nM” value came out at 51%; the “percent inhibition of AR, 750.0 nM” value was 68%; the “percent inhibition of AR, 3000.0 nM” value amounted to 77%. Also, in the data set on AR mRNA [1] (setting [6]), it took 270 nM to reach half-maximal inhibition (IC50). Moreover, in the data set with AR mRNA [2] (500 nM ASO, ~24 h, Table 18), the “% inhibition” value stood at 40%.
As for “584152 (kG*kA*kG*dT*dT*dG*dT*dG*dA*dT*dT*dT*d[5mC]*kA*kG*kG; antisense) [compound 584152]”, in the data set with AR mRNA [1] (setting [7]), the “percent inhibition of AR, 46.9 nM” value came to 28%; the “percent inhibition of AR, 187.5 nM” value stood at 59%; the “percent inhibition of AR, 750.0 nM” value was 87%; the “percent inhibition of AR, 3000.0 nM” value is 95%. The substance also displayed an IC50 in the data set with AR mRNA [1] (setting [7]) of 110 nM. Also, the “% inhibition” value in the data set with AR mRNA [2] (setting [8]) is recorded as 88%.
Consider “584168 (k[5mC]*kT*kG*dA*dT*dT*dA*dG*d[5mC]*dT*dA*dT*dG*kA*k[5mC]*k[5mC]; antisense) [compound 584168]”, for which, in the data set on AR mRNA [1] (setting [9]), the “percent inhibition of AR, 46.9 nM” value turned out to be 5%; the “percent inhibition of AR, 187.5 nM” value is reported as 32%; the “percent inhibition of AR, 750.0 nM” value came out at 70%; the “percent inhibition of AR, 3000.0 nM” value is recorded as 91%. In addition, the 50% inhibitory concentration (IC50) in the data set on AR mRNA [1] (setting [9]) was determined as 320 nM. Also, the “% inhibition” value with AR mRNA [2] (setting [8]) amounted to 70%.
In the case of “569223 (antisense eG*eT*kT*kG*kA*dT*dT*dT*dA*dA*dT*dG*dG*kT*kT*kG) [compound 569223]”, the “percent inhibition of AR” value in the data set with AR mRNA [1] (31.25 nM, ~16 h, Table 14) was 21%; with AR mRNA [1] (62.5 nM, ~16 h, Table 14), 20%; in the data set with AR mRNA [1] (125.0 nM, ~16 h, Table 14) it was 30%; with AR mRNA [1] (500.0 nM, ~16 h, Table 14), 73%; in the data set with AR mRNA [1] (1000.0 nM, ~16 h, Table 14), 87%. This substance registered an IC50 with AR mRNA [1] (~16 h, Table 14) of 191 nM. The “% inhibition” value with AR mRNA [2] (1,000 nM ASO, ~24 h, Table 13) was determined as 59%.
Turning to “583865 (kT*kT*k[5mC]*dA*dG*dT*dG*d[5mC]*dT*d[5mC]*dT*dT*dG*k[5mC]*k[5mC]*kT; antisense) [compound 583865]”, in the data set on AR mRNA [1] (setting [10]), the “percent inhibition of AR, 46.9 nM” value amounted to 33%; the “percent inhibition of AR, 187.5 nM” value worked out at 42%; the “percent inhibition of AR, 750.0 nM” value stood at 68%; the “percent inhibition of AR, 3000.0 nM” value stood at 85%. This substance also registered an IC50 with AR mRNA [1] (setting [10]) of 190 nM. In the data set with AR mRNA [2] (setting [5]), the “% inhibition” value came out at 45%.
As to “583922 (kA*kG*kT*dT*dG*dT*dA*dG*dT*dA*dG*dT*d[5mC]*kG*k[5mC]*kG; antisense) [compound 583922]”, in the data set on AR mRNA [1] (setting [11]), the “percent inhibition of AR, 46.9 nM” value was found to be 16%; the “percent inhibition of AR, 187.5 nM” value was 43%; the “percent inhibition of AR, 750.0 nM” value was 76%; the “percent inhibition of AR, 3000.0 nM” value came out at 92%. The IC50 in the data set on AR mRNA [1] (setting [11]) came out at 230 nM. Besides, in the data set on AR mRNA [2] (Table 21, 500 nM oligonucleotide, electroporation, approximately 24 hours, relative to untreated control), the “% inhibition” value was found to be 37%.
As for “583990 (kA*k[5mC]*kA*d[5mC]*dA*dT*d[5mC]*dA*dG*dG*dT*dG*d[5mC]*kG*kG*kT; antisense) [compound 583990]”, in the data set with AR mRNA [1] (setting [11]), the “percent inhibition of AR, 46.9 nM” value worked out at 0%; the “percent inhibition of AR, 187.5 nM” value worked out at 9%; the “percent inhibition of AR, 750.0 nM” value came to 33%; the “percent inhibition of AR, 3000.0 nM” value came to 56%. The same substance returned an IC50 in the data set with AR mRNA [1] (setting [11]) of 1920 nM. Moreover, the “% inhibition” value with AR mRNA [2] (Table 22, 500 nM oligonucleotide, electroporation, approximately 24 hours, relative to untreated control) is 30%.
In the case of “583559 (antisense kA*kG*kT*d[5mC]*dT*dT*dT*dA*dG*d[5mC]*dA*dG*d[5mC]*kT*kT*kT) [compound 583559]”, in the data set with AR mRNA [1] (setting [12]), the “percent inhibition of AR, 46.9 nM” value stood at 30%; the “percent inhibition of AR, 187.5 nM” value came out at 49%; the “percent inhibition of AR, 750.0 nM” value was determined as 63%; the “percent inhibition of AR, 3000.0 nM” value was 80%. In the data set on AR mRNA [1] (setting [12]), the half-maximal inhibitory concentration (IC50) turned out to be 220 nM. The “% inhibition” value with AR mRNA [2] (500 nM ASO, ~24 h, Table 16) was 52%.
“583866 (kT*k[5mC]*kT*dT*d[5mC]*dA*dG*dT*dG*d[5mC]*dT*d[5mC]*dT*kT*kG*k[5mC]; antisense) [compound 583866]”: in the data set with AR mRNA [1] (setting [4]), the “percent inhibition of AR, 46.9 nM” value worked out at 17%; the “percent inhibition of AR, 187.5 nM” value was found to be 48%; the “percent inhibition of AR, 750.0 nM” value came out at 71%; the “percent inhibition of AR, 3000.0 nM” value is 91%. Further, the IC50 in the data set with AR mRNA [1] (setting [4]) worked out at 240 nM. Besides, the “% inhibition” value in the data set on AR mRNA [2] (setting [5]) turned out to be 32%.
Consider “583571 (antisense kT*k[5mC]*kA*dG*dT*d[5mC]*d[5mC]*dT*dA*d[5mC]*d[5mC]*dA*dG*kG*k[5mC]*kA) [compound 583571]”, for which, in the data set on AR mRNA [1] (setting [12]), the “percent inhibition of AR, 46.9 nM” value was determined as 18%; the “percent inhibition of AR, 187.5 nM” value came to 36%; the “percent inhibition of AR, 750.0 nM” value stood at 53%; the “percent inhibition of AR, 3000.0 nM” value is given as 59%. The IC50 in the data set on AR mRNA [1] (setting [12]) stood at 800 nM. For the same substance, the “% inhibition” value in the data set with AR mRNA [2] (500 nM ASO, ~24 h, Table 16) is recorded as 43%.
In the case of “584166 (k[5mC]*kA*k[5mC]*dA*dT*d[5mC]*dA*dG*dA*dA*dG*dG*dA*kG*kT*kA; antisense) [compound 584166]”, in the data set with AR mRNA [1] (setting [7]), the “percent inhibition of AR, 46.9 nM” value was found to be 34%; the “percent inhibition of AR, 187.5 nM” value is given as 52%; the “percent inhibition of AR, 750.0 nM” value worked out at 84%; the “percent inhibition of AR, 3000.0 nM” value is on record as 92%. Further, in the data set with AR mRNA [1] (setting [7]), the midpoint of inhibition, the IC50, lay at 100 nM. The “% inhibition” value with AR mRNA [2] (setting [8]) came out at 89%.

For orientation: IC50 means the concentration that inhibits the measured activity by half. A high value points to lower potency. Broadly, the % inhibition is how much of the control response was suppressed. A lower % inhibition goes with little suppression.
